# Data as given in patent US20120108538A1, “SULFATED POLYSACCHARIDES HAVING ANTIPLASMODIAL ACTIVITY AND METHODS AND PRODUCTS FOR IDENTIFYING ANTIPLASMODIAL ACTIVITY” (priority 2009, published 2012).
# “Also recorded” adds a separate entry of the source.
# Columns and labels:
# [1] = system: P. falciparum blood stage growth; test: Growth inhibition assay (GIA), flow cytometry; type: cell-based, Plasmodium falciparum; conditions: for inhibition of different P. falciparum lines: 3D7, W2mef, D10, E8B, XIE, HCS3, SA-dependent and SA-independent invasion
# Method: P. falciparum was cultured as described. Parasites were maintained in culture media of RPMI-HEPES supplemented with 5% (vol/vol) heat inactivated (56° C. 1 hr) human serum (Australian Red Cross Blood Bank),. […] (Gibco), 10mM L-glutamine (Gibco) and 25 mM […]. Parasites were grown at 37° C., 2% hematocrit, O+ human erythrocytes (Australian Red Cross Blood Bank), 1% O2 4% CO2 95% N2 atmosphere. Sorbitol (Sigma-Aldrich) was used to synchronize cultures. 32. Persson K E, Lee C T, Marsh K, Beeson J G (2006) Development and optimization of high-throughput methods to measure Plasmodium falciparum-specific growth inhibitory antibodies. J Clin Microbiol 44: 1665-1673.33. Lambros C, Vanderberg J P (1979) Synchronization of Plasmodium falciparum erythrocytic stages in culture. J Parasitol 65: 418-420.
# Heparin and K5 polysaccharides (Table 1) were tested for inhibitory activity against P. falciparum parasites using high throughput growth inhibitory assays (GlAs). Duplicate 25 μl suspensions of synchronized parasites, 2% parasitemia (32 hr trophozoite), 1% hematocrit with normal or enzymatically treated erythrocyctes, were incubated with inhibitory compounds in 96 well sterile U-bottom plates (Falcon). For humidification, outside wells were filled with sterile human tonicity phosphate-buffered saline (HT-PBS). Plates were incubated as for parasite culture for 44 hrs and analyzed. Parasites were stained with 10 μg/mL ethidium bromide (EtBr) (BioRad), HT-PBS, 1 hr in darkness. Cells were washed and re-suspended in 200 μL HT-PBS. Parasitemia was measured using FACSCalibur flow-cytometry. Data were analyzed using FlowJo (Tree Star), gating on intact erythrocytes and determining parasitemia by EtBr staining. Inhibitory effects of compounds were expressed as percent growth of uninhibited controls (HT-PBS) for each experiment.
# Erythrocytes were treated with neuraminidase, chymotrypsin and trypsin as described previously. Erythrocytes were washed with RPMI-HEPES and incubated with neuraminidase ([…], 15 minutes), chymotrypsin (1 mg/mL, 45 minutes) or trypsin (100 μg/mL, […]) at 37° C. Neuraminidase treated bells were washed three times with RPMI-HEPES and chymotrypsin and trypsin treated cells were washed once with culture media and twice with RPMI-HEPES and then used in GIAs. 34. Persson K E, McCallum F J, Reiling L, Lister N A, Stubbs J, et al. (2008) Variation in use of erythrocyte invasion pathways by Plasmodium falciparum mediates evasion of human inhibitory antibodies. J Clin Invest 118: 342-351.
# [2] = system: P. falciparum merozoite invasion of erythrocytes; test: Live video microscopy of merozoite invasion; type: cell-based, Plasmodium falciparum; conditions: 100 μg/mL; 4529 seconds filming, 15 rupture events
# Method: Parasites cultures of 5-10% late stage schizonts were filmed with video microscopy in normal culture media, 37° C. 6% CO2 with humidification with or without 100 μg/mL of inhibitory compounds added to cultures as described previously. 35. Gilson P R, Crabb B S (2009) Morphology and kinetics of the three distinct phases of red blood cell invasion by Plasmodium falciparum merozoites. Int J Parasitol 39: 91-96.
# A mechanism of action of heparin was next determined using live time-lapse microscopy. In control parasite cultures, schizont rupture and step-wise invasion of erythrocytes by merozoites was readily observed (FIG. 7C). During merozoite invasion of erythrocytes, Applicant observed initial contact with erythrocyte surface resulting in brief deformation of erythrocytes, merozoite reorientation, mechanical invasion resulting in erythrocyte deformation, and erythrocyte re-shaping upon complete invasion, as reported previously. […] Initial contact of merozoites with the erythrocyte surface was also observed; however, contact between erythrocytes and merozoites was not sustained, and merozoites dissociated after various lengths of time (FIG. 7D). No successful invasion events were observed; additionally, reorientation of merozoites and deformation of erythrocytes were not clearly seen, although the observation of merozoite reorientation is limited due to microscope resolution. […]
# [3] = molecular target: MSP1-42 (Plasmodium falciparum, UniProt Q8I0U8); test: Heparin-BSA binding assay; parameters: a C-terminal 42kDa (MSP1-42) fragment; made in house; host or cells: E. coli; species or system P. falciparum; conditions: soluble inhibitor
# Sequence of MSP1-42 (Q8I0U8 1327-1699): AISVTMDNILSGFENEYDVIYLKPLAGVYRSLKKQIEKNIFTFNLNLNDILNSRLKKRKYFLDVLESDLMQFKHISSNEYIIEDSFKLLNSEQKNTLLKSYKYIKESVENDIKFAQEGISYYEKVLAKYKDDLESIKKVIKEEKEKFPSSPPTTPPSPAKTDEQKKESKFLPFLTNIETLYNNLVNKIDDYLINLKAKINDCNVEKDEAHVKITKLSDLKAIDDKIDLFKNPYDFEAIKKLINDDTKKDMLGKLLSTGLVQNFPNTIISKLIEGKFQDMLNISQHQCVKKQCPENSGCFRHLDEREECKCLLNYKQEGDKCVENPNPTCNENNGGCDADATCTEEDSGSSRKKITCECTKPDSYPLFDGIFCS
# Method: Recombinant merozoite antigens were coated (1 μg/mL) onto 96 well plates (Nunc Maxisorb) in HT-PBS overnight at 4° C. Plates were washed and blocked with 1% casein, 1 hr, room temperature. Plates were incubated with heparin-BSA conjugate with soluble inhibitors and detected with anti-BSA (rabbit) (Sigma-Aldrich) antibodies and anti-rabbit -HRP. Detection was performed with 2,2′-azino-bis(3-ethylbenzthiazoline-6-sulphonic acid) (Sigma-Aldrich) monitored for colour change and measured for absorbance at 405 nm. All incubations were performed in HT-PBS 0.1% casein 0:05% Tween20, 1 hr at room temperature. Plates were washed 3 times HT-PBS 0.05% Tween20 between incubations.
substance,measurement,setting,value
Heparin,inhibition of different P. falciparum lines,[1],inhibited to similar levels
same,inhibition of different P. falciparum lines,[1]; listed as Heparin,inhibited all parasite lines tested; also recorded: inhibited at equal levels
same,inhibition of invasion into enzyme-treated versus control erythrocytes,"[1]; 3D7, neuraminidase, trypsin, chymotrypsin treated erythrocytes",equivalent
same,"IC50, inhibition of P. falciparum blood stage growth in GIA","[1]; 3D7 parasite line, one cycle of parasite growth",19 µg/mL
same,selection of heparin-resistant parasites,[1]; 3D7 selected once or twice with heparin 100 μg/mL for 48 hrs,no evidence that Applicant were able to select for increased resistance
same,IC50 of heparin in combination with AMA1-binding peptide,[1]; AMA1-binding peptide at 6.25 μg/mL,~3 µg/mL
same,parasite growth over one cycle of replication,[1]; heparin 100 μg/mL,a very low level of parasite growth
same,combination with pyrimethamine,[1]; heparin with increasing pyrimethamine,acted in an additive manner
same,successful invasion events observed,[2],no successful invasion observed
same,inhibition of heparin-BSA binding to recombinant MSP1-42,[3],inhibited in a concentration-dependent manner
